In this assay the target is Glutathione S-transferase omega-1 (Homo sapiens) (UniProt P78417). Put plainly: GSTO1 catalytic cysteine binding mode – biophysical, LC-MS/MS, mechanism study, late-stage follow-up (AID 449772). Particulars: purified GSTO1, LC-MS/MS active-site cysteine labeling.

Outcome data for two compounds are collected here from PubChem BioAssay AID449772 (The Scripps Research Institute Molecular Screening Center, 2010).

The structures appear in SMILES notation. Calls of active or inactive are those of the source.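 How the source made its calls: active means mass spectrometry shows the compound covalently bound to the catalytic cysteine of glutathione transferase omega 1; inactive means no covalent bond to that cysteine seen.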

Chain of Glutathione S-transferase omega-1 (Homo sapiens) (P78417 whole entry, looked up): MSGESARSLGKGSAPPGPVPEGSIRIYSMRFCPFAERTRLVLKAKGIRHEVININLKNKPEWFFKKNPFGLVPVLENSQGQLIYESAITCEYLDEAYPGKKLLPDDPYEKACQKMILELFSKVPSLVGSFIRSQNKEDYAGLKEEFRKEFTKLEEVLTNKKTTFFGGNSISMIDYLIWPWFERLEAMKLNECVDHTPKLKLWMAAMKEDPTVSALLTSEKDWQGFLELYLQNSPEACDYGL

Consider `COc1ccc(C(C(=O)NC2CCCCC2)N(C(=O)CCl)c2cccc(Cl)c2)cc1` (configuration not stated), for which the result was active.

Turning to `O=C(NC1CCCCC1)C(c1cccnc1)N(C(=O)CCl)c1ccc(F)cc1` (configuration not stated), the result was active.
